Laboratory results as given in patent US10640506B2, “Cyclobutyl substituted pyrrolopyridine and pyrrolopyrimidines derivatives as JAK inhibitors” (Incyte Corporation, priority 2010, dated 2020).
Where a name gives a salt, the structure may show the parent alone. Read-outs that look alike come from different tables or passages of the source.

Tests used:
JAK2 (a.a. 828-1132) = biological target: T1, JAK2 (a.a. 828-1132) (Homo sapiens, UniProt O60674); experiment: In vitro JAK kinase assay (HTRF, phosphorylation of biotinylated peptide), JAK2; type: biochemical; details: 1 mM ATP
T1 construct: JAK2 (a.a. 828-1132); His tag (N)
T1 sequence (O60674 828-1132): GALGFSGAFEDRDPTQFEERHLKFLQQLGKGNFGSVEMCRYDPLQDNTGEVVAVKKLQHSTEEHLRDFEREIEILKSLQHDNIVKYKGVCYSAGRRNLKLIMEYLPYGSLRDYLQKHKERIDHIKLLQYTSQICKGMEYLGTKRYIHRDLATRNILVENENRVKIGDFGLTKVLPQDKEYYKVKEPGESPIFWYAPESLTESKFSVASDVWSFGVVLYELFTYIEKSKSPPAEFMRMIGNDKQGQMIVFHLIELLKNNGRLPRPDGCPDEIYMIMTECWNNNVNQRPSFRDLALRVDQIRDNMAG
Outline: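 HTRF detection (Eu-Py20, SA-APC, 40 min) of biotinylated-peptide phosphorylation, following a 1 hour room-temperature reaction quenched with 45 mM EDTA. Enzymes: insect-cell-expressed N-terminal His-tagged JAK1 (837-1142) and JAK2 (828-1132) catalytic domains. Activities reported in ranged categories.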

[1] = biological target: human JAK1 (a.a. 837-1142) (Homo sapiens, UniProt P23458); experiment: In vitro JAK kinase assay (HTRF, phosphorylation of biotinylated peptide), JAK1; type: biochemical; details: 1 mM ATP
human JAK1 (a.a. 837-1142), sequence (P23458 849-1154): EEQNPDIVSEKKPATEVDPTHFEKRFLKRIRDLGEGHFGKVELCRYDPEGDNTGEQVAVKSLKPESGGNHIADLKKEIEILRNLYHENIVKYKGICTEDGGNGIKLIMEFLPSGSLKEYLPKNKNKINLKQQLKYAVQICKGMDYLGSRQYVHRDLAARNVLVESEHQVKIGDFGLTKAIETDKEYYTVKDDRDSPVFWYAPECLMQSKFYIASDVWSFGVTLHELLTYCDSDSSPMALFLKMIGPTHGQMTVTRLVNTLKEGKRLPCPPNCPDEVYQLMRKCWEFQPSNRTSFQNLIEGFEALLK
Outline: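 Phosphorylation of a biotinylated peptide was run at room temperature for 1 hour using the N-terminally His-tagged JAK1 kinase domain (837-1142) from insect cells. After an EDTA stop, Eu-Py20 and SA-APC gave an HTRF read; values are binned potency ranges.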

[2] = read-out: JAK1 IC50 (nM) at 1 mM, Table E

SMILES | IC50 (JAK2 (a.a. 828-1132); Table F) [nM] | IC50 ([1]; Table F) [nM] | other results
CN(C)Cc1cc(C(=O)N2CCN([C@H]3C[C@](CC#N)(n4cc(-c5ncnc6[nH]ccc56)cn4)C3)CC2)nc(C(F)(F)F)n1 [Example 52, {trans-3-(4-{[6-[(dimethylamino)methyl]-2-(trifluoromethyl)pyrimidin-4-yl]carbonyl}piperazin-1-yl)-1-[4-(7H-pyrrolo[2,3-d]pyrimidin-4-yl)-1H-pyrazol-1-yl]cyclobutyl}acetonitrile] | 25 to 100 | < 10 | 
C[C@H]1CCCN1Cc1cc(F)cc(OC2CCN(C3CC(CC#N)(n4cc(-c5ncnc6[nH]ccc56)cn4)C3)CC2)c1 (single isomer, unassigned; isomer 2) [Example 41, isomer 2] |  |  | IC50 (JAK2 (a.a. 828-1132); Table E, listed as 41, isomer 2, read-out: JAK2 IC50 (nM) +): < 10 nM; IC50 [1, 2]: < 10 nM
N#CC[C@]1(n2cc(-c3ncnc4[nH]ccc34)cn2)C[C@@H](N2CCN(C(=O)NC3CC3)CC2)C1 [Example 107, 4-{cis-3-(cyanomethyl)-3-[4-(7H-pyrrolo[2,3-d]pyrimidin-4-yl)-1H-pyrazol-1-yl]cyclobutyl}-N-cyclopropylpiperazine-1-carboxamide] | > 100 | 10 to 25 | 
CNCc1cc(C(=O)N2CCN([C@H]3C[C@](CC#N)(n4cc(-c5ncnc6[nH]ccc56)cn4)C3)CC2)nc(C(F)(F)F)c1 [Example 68, {trans-3-(4-{[4-[(methylamino)methyl]-6-(trifluoromethyl)pyridin-2-yl]carbonyl}piperazin-1-yl)-1-[4-(7H-pyrrolo[2,3-d]pyrimidin-4-yl)-1H-pyrazol-1-yl]cyclobutyl}acetonitrile] | 10 to 25 | < 10 | 
CN(C)Cc1cc(F)cc(OC2CCN(C3CC(CC#N)(n4cc(-c5ncnc6[nH]ccc56)cn4)C3)CC2)c1 (single isomer, unassigned; isomer 1) [Example 40, isomer 1, {cis-3-(4-{3-[(dimethylamino)methyl]-5-fluorophenoxy}piperidin-1-yl)-1-[4-(7H-pyrrolo[2,3-d]pyrimidin-4-yl)-1H-pyrazol-1-yl]cyclobutyl}acetonitrile] |  |  | IC50 (JAK2 (a.a. 828-1132); Table E, listed as 40, isomer 1, read-out: JAK2 IC50 (nM) +): 10 to 25 nM; IC50 [1, 2]: < 10 nM
N#CC[C@]1(n2cc(-c3ncnc4[nH]ccc34)cn2)C[C@H](N2CCN(C(=O)c3cc(CO)nc(C(F)(F)F)n3)CC2)C1 [Example 51, {trans-3-(4-{[6-(hydroxymethyl)-2-(trifluoromethyl)pyrimidin-4-yl]carbonyl}piperazin-1-yl)-1-[4-(7H-pyrrolo[2,3-d]pyrimidin-4-yl)-1H-pyrazol-1-yl]cyclobutyl}acetonitrile] | 25 to 100 | < 10 | 
N#CC[C@]1(n2cc(-c3ncnc4[nH]ccc34)cn2)C[C@H](N2CCN(C(=O)Nc3ccc(F)cc3C(F)(F)F)CC2)C1 [Example 3b, 4-{3-(cyanomethyl)-3-[4-(7H-pyrrolo[2,3-d]pyrimidin-4-yl)-1H-pyrazol-1-yl]cyclobutyl}-N-[4-fluoro-2-(trifluoromethyl)phenyl]piperazine-1-carboxamide 2.3×(trifluoroacetate) Salt] |  |  | IC50 (JAK2 (a.a. 828-1132); Table B, read-out: JAK2 IC50): > 100 nM; IC50 ([1]; Table B, read-out: JAK1 IC50): 10 to 25 nM
C[C@@H](NC(=O)N1CCN([C@H]2C[C@](CC#N)(n3cc(-c4ncnc5[nH]ccc45)cn3)C2)CC1)C(F)(F)F [Example 113, 4-{trans-3-(cyanomethyl)-3-[4-(7H-pyrrolo[2,3-d]pyrimidin-4-yl)-1H-pyrazol-1-yl]cyclobutyl}-N-[(1R)-2,2,2-trifluoro-1-methylethyl]piperazine-1-carboxamide] | > 100 | < 10 | 
CC(C)(O)c1cc(C(=O)N2CCN([C@H]3C[C@](CC#N)(n4cc(-c5ccnc6[nH]ccc56)cn4)C3)CC2)nc(C(F)(F)F)c1 [Example 163, {trans-3-(4-{[4-(1-hydroxy-1-methylethyl)-6-(trifluoromethyl)pyridin-2-yl]carbonyl}piperazin-1-yl)-1-[4-(1H-pyrrolo[2,3-b]pyridin-4-yl)-1H-pyrazol-1-yl]cyclobutyl}acetonitrile] | 25 to 100 | < 10 | 
CNCc1cc(C(=O)N2CCN([C@H]3C[C@](CC#N)(n4cc(-c5ncnc6[nH]ccc56)cn4)C3)CC2)nc(C(F)(F)F)n1 [Example 50, {trans-3-(4-{[6-[(methylamino)methyl]-2-(trifluoromethyl)pyrimidin-4-yl]carbonyl}piperazin-1-yl)-1-[4-(7H-pyrrolo[2,3-d]pyrimidin-4-yl)-1H-pyrazol-1-yl]cyclobutyl}acetonitrile] | 25 to 100 | < 10 | 
N#CC[C@]1(n2cc(-c3ncnc4[nH]ccc34)cn2)C[C@H](N2CCC(Oc3cc(C#N)cc(C(F)(F)F)n3)CC2)C1 (single isomer, unassigned) [Example 134, 2-1(1-{trans-3-(cyanomethyl)-3-[4-(7H-pyrrolo[2,3-d]pyrimidin-4-yl)-1H-pyrazol-1-yl]cyclobutyl}piperidin-4-yl)oxyl-6-(trifluoromethyl)isonicotinonitrile] | > 100 | < 10 | 
COCc1cc(C(=O)N2CCN([C@H]3C[C@](CC#N)(n4cc(-c5ncnc6[nH]ccc56)cn4)C3)CC2)nc(C(F)(F)F)n1 [Example 60, {trans-3-(4-{[6-(methoxymethyl)-2-(trifluoromethyl)pyrimidin-4-yl]carbonyl}piperazin-1-yl)-1-[4-(7H-pyrrolo[2,3-d]pyrimidin-4-yl)-1H-pyrazol-1-yl]cyclobutyl}acetonitrile] | 25 to 100 | < 10 | 
Cc1cc(OC2CCN([C@H]3C[C@@](CC#N)(n4cc(-c5ncnc6[nH]ccc56)cn4)C3)CC2)nc(C(F)(F)F)c1 [Example 151, {trans-3-(4-{[4-methyl-6-(trifluoromethyl)pyridin-2-yl]oxy}piperidin-1-yl)-1-[4-(7H-pyrrolo[2,3-d]pyrimidin-4-yl)-1H-pyrazol-1-yl]cyclobutyl}acetonitrile] | 25 to 100 | < 10 | 
CNC(=O)N1CCN([C@H]2C[C@](CC#N)(n3cc(-c4ncnc5[nH]ccc45)cn3)C2)CC1 [Example 112, 4-{trans-3-(cyanomethyl)-3-[4-(7H-pyrrolo[2,3-d]pyrimidin-4-yl)-1H-pyrazol-1-yl]cyclobutyl}-N-methylpiperazine-1-carboxamide] | 25 to 100 | 10 to 25 | 
N#CC[C@]1(n2cc(-c3ncnc4[nH]ccc34)cn2)C[C@H](N2CCN(C(=O)c3cc(CO)cc(C(F)(F)F)n3)CC2)C1 [Example 66, {trans-3-(4-{[4-(hydroxymethyl)-6-(trifluoromethyl)pyridin-2-yl]carbonyl}piperazin-1-yl)-1-[4-(7H-pyrrolo[2,3-d]pyrimidin-4-yl)-1H-pyrazol-1-yl]cyclobutyl}acetonitrile] | 25 to 100 | < 10 | 
N#CC[C@]1(n2cc(-c3ncnc4[nH]ccc34)cn2)C[C@H](N2CCC(Oc3cc(CN4CCC4)cc(C(F)(F)F)n3)CC2)C1 [Example 156, {trans-3-(4-{[4-(azetidin-1-ylmethyl)-6-(trifluoromethyl)pyridin-2-yl]oxy}piperidin-1-yl)-1-[4-(7H-pyrrolo[2,3-d]pyrimidin-4-yl)-1H-pyrazol-1-yl]cyclobutyl}acetonitrile] | 25 to 100 | < 10 | 
CN(C)Cc1cc(C#N)cc(OC2CCN([C@H]3C[C@](CC#N)(n4cc(-c5ncnc6[nH]ccc56)cn4)C3)CC2)c1 [Example 137, 3-[(1-{trans-3-(cyanomethyl)-3-[4-(7H-pyrrolo[2,3-d]pyrimidin-4-yl)-1H-pyrazol-1-yl]cyclobutyl}piperidin-4-yl)oxy]-5-[(dimethylamino)methyl]benzonitrile] | > 100 | 10 to 25 | 
